Measurements from US10959925B2, “Hair cosmetic composition” (KAO CORPORATION, priority 2016, dated 2021).

Assay: physchem

Work on `CC1COC(=O)O1` (stereo not shown) [propylene carbonate] yielded a logP of -0.41.
